Earlier results in patent US20100150991A1, “Combination Wound Therapy” (priority 2008, published 2010).

Columns and labels:
[1] = tested on: acute and chronic wounds; settings: topical CO2, acute and chronic wounds; Wollina et al 2004
[2] = CO2 insufflation compared with air insufflation; van der Linden and Persson 2003
[3] = topical application of gaseous nitric oxide
[4] = tested on: neutrophil adhesion, platelets, and pro-inflammatory cutokines in the circulating blood; settings: doses of less than 80 ppm; by reducing neutrophil adhesion, platelets and pro-inflammatory cytokines in circulating blood

Row | SMILES | clinical evidence in wounds [1] | rates of infection [2] | half life of NO in contact with tissues [3] | anti-inflammatory effect [4]
1 | O=C=O [CO2, carbon dioxide] | increased granulation tissue and reduction of discharge and malodor | lower rates of infection than air insufflation |  | 
2 | [N]=O [NO, nitric oxide] |  |  | 6 min | anti-inflammatory effect
